Measurements from PubChem BioAssay (NCI).
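Values below derive from 48-hour exposures of cells grown in 96-well plates, with endpoints linearly interpolated between the two concentrations bracketing the appropriate inhibition level. GI50 = concentration required for 50% inhibition of growth. The concentration for full growth arrest is given as TGI.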

Columns and labels:
Test in all cases: NCI-60 cell line screen, 48 h
XF 498 CNS = system: XF 498 CNS
SNB-78 CNS = system: SNB-78 CNS
MOLT-4 leukemia = system: MOLT-4 leukemia
RXF-631 renal = system: RXF-631 renal
OVCAR-5 ovarian = system: OVCAR-5 ovarian
UACC-257 melanoma = system: UACC-257 melanoma
HCT-15 colon = system: HCT-15 colon
786-0 renal = system: 786-0 renal
UACC-62 melanoma = system: UACC-62 melanoma
M19-MEL melanoma = system: M19-MEL melanoma
KM20L2 colon = system: KM20L2 colon
SK-MEL-28 melanoma = system: SK-MEL-28 melanoma
DLD-1 colon = system: DLD-1 colon
NCI-H226 lung = system: NCI-H226 lung
HOP-18 NSCLC = system: HOP-18 NSCLC
NCI-H460 lung = system: NCI-H460 lung
HL-60(TB) leukemia = system: HL-60(TB) leukemia
SK-MEL-2 melanoma = system: SK-MEL-2 melanoma
HOP-62 NSCLC = system: HOP-62 NSCLC
SK-OV-3 ovarian = system: SK-OV-3 ovarian
HCC-2998 colon = system: HCC-2998 colon
RXF 393 renal = system: RXF 393 renal
A498 renal = system: A498 renal
DMS 114 small cell lung = system: DMS 114 small cell lung
SW-620 colon = system: SW-620 colon
SF-268 CNS = system: SF-268 CNS
TK-10 renal = system: TK-10 renal
SNB-19 CNS = system: SNB-19 CNS
HT29 colon = system: HT29 colon
ACHN renal = system: ACHN renal
OVCAR-8 ovarian = system: OVCAR-8 ovarian
K-562 leukemia = system: K-562 leukemia
OVCAR-4 ovarian = system: OVCAR-4 ovarian
SNB-75 CNS = system: SNB-75 CNS
A549 NSCLC = system: A549 NSCLC
LOX IMVI melanoma = system: LOX IMVI melanoma
NCI-H522 lung = system: NCI-H522 lung
MALME-3M melanoma = system: MALME-3M melanoma
UO-31 renal = system: UO-31 renal
CAKI-1 renal = system: CAKI-1 renal
SF-295 CNS = system: SF-295 CNS
SN12C renal = system: SN12C renal
HCT-116 colon = system: HCT-116 colon
M14 melanoma = system: M14 melanoma
SF-539 CNS = system: SF-539 CNS
NCI-H23 lung = system: NCI-H23 lung
LXFL 529 NSCLC = system: LXFL 529 NSCLC
EKVX NSCLC = system: EKVX NSCLC
CCRF-CEM leukemia = system: CCRF-CEM leukemia
KM12 colon = system: KM12 colon
HOP-92 NSCLC = system: HOP-92 NSCLC
RPMI-8226 leukemia = system: RPMI-8226 leukemia
IGROV1 ovarian = system: IGROV1 ovarian
COLO 205 colon = system: COLO 205 colon
SK-MEL-5 melanoma = system: SK-MEL-5 melanoma
OVCAR-3 ovarian = system: OVCAR-3 ovarian
DMS 273 small cell lung = system: DMS 273 small cell lung
U251 CNS = system: U251 CNS

C[n+]1[se]c2ccccc2c1Cl
TGI (XF 498 CNS): > 54.9 µM | TGI (SNB-78 CNS): > 72.8 µM | TGI (MOLT-4 leukemia): > 63.6 µM | TGI (RXF-631 renal): > 67.2 µM | TGI (OVCAR-5 ovarian): > 79.9 µM | TGI (UACC-257 melanoma): > 46.9 µM | TGI (HCT-15 colon): > 67.3 µM | TGI (786-0 renal): > 59.2 µM | TGI (UACC-62 melanoma): 33.2 µM | TGI (M19-MEL melanoma): 27.3 µM | TGI (KM20L2 colon): > 75.7 µM | TGI (SK-MEL-28 melanoma): > 54.7 µM | TGI (DLD-1 colon): > 59.7 µM | TGI (NCI-H226 lung): > 71.1 µM | TGI (HOP-18 NSCLC): 52.9 µM | TGI (NCI-H460 lung): > 100 µM | TGI (HL-60(TB) leukemia): 19.6 µM | TGI (SK-MEL-2 melanoma): 28.1 µM | TGI (HOP-62 NSCLC): > 58.8 µM | TGI (SK-OV-3 ovarian): > 100 µM | TGI (HCC-2998 colon): > 81.9 µM | TGI (RXF 393 renal): 50.4 µM | TGI (A498 renal): > 100 µM | TGI (DMS 114 small cell lung): > 70 µM | TGI (SW-620 colon): 42.6 µM | TGI (SF-268 CNS): 52.4 µM | TGI (TK-10 renal): > 63 µM | TGI (SNB-19 CNS): > 100 µM | TGI (HT29 colon): > 76.3 µM | TGI (ACHN renal): > 70.7 µM | TGI (OVCAR-8 ovarian): > 84.7 µM | TGI (K-562 leukemia): > 70.7 µM | TGI (OVCAR-4 ovarian): > 60 µM | TGI (SNB-75 CNS): 45.8 µM | TGI (A549 NSCLC): > 94 µM | TGI (LOX IMVI melanoma): 39.7 µM | TGI (NCI-H522 lung): 42.7 µM | TGI (MALME-3M melanoma): > 56.9 µM | TGI (UO-31 renal): > 63.5 µM | TGI (CAKI-1 renal): > 56.2 µM | TGI (SF-295 CNS): 50.9 µM | TGI (SN12C renal): 23.7 µM | TGI (HCT-116 colon): 31 µM | TGI (M14 melanoma): 27.8 µM | TGI (SF-539 CNS): 37.1 µM | TGI (NCI-H23 lung): 45.8 µM | TGI (LXFL 529 NSCLC): > 100 µM | TGI (EKVX NSCLC): 52.1 µM | TGI (CCRF-CEM leukemia): 21.5 µM | TGI (KM12 colon): > 56.7 µM | TGI (HOP-92 NSCLC): 20.2 µM | TGI (RPMI-8226 leukemia): > 67 µM | TGI (IGROV1 ovarian): > 77.5 µM | TGI (COLO 205 colon): > 59.8 µM | TGI (SK-MEL-5 melanoma): 31.1 µM | TGI (OVCAR-3 ovarian): > 71.9 µM | TGI (DMS 273 small cell lung): 41.5 µM | TGI (U251 CNS): > 74.4 µM

CCO.CCO.Oc1ccc(Nc2ncns2)cc1.Oc1ccc(Nc2ncns2)cc1.[Ti]
GI50 (XF 498 CNS): 44.9 µM | TGI (XF 498 CNS): > 100 µM | GI50 (SNB-78 CNS): 41.6 µM | TGI (SNB-78 CNS): > 100 µM | GI50 (MOLT-4 leukemia): 27.5 µM | TGI (MOLT-4 leukemia): > 100 µM | GI50 (RXF-631 renal): 33 µM | TGI (RXF-631 renal): > 100 µM | GI50 (OVCAR-5 ovarian): > 100 µM | TGI (OVCAR-5 ovarian): > 100 µM | GI50 (UACC-257 melanoma): 30.2 µM | TGI (UACC-257 melanoma): > 100 µM | GI50 (HCT-15 colon): 48.1 µM | TGI (HCT-15 colon): > 100 µM | GI50 (786-0 renal): 49.6 µM | TGI (786-0 renal): > 100 µM | GI50 (UACC-62 melanoma): 45.9 µM | TGI (UACC-62 melanoma): > 100 µM | GI50 (M19-MEL melanoma): 44.5 µM | TGI (M19-MEL melanoma): > 100 µM | GI50 (KM20L2 colon): > 100 µM | TGI (KM20L2 colon): > 100 µM | GI50 (SK-MEL-28 melanoma): 53 µM | TGI (SK-MEL-28 melanoma): > 100 µM | GI50 (DLD-1 colon): 36.5 µM | TGI (DLD-1 colon): > 100 µM | GI50 (NCI-H226 lung): > 100 µM | TGI (NCI-H226 lung): > 100 µM | GI50 (HOP-18 NSCLC): > 100 µM | TGI (HOP-18 NSCLC): > 100 µM | GI50 (NCI-H460 lung): 26.7 µM | TGI (NCI-H460 lung): 87.7 µM | GI50 (HL-60(TB) leukemia): 24.7 µM | TGI (HL-60(TB) leukemia): 74.1 µM | GI50 (SK-MEL-2 melanoma): 27.6 µM | TGI (SK-MEL-2 melanoma): 70.7 µM | GI50 (HOP-62 NSCLC): 71.5 µM | TGI (HOP-62 NSCLC): > 100 µM | GI50 (SK-OV-3 ovarian): > 100 µM | TGI (SK-OV-3 ovarian): > 100 µM | GI50 (HCC-2998 colon): 53.1 µM | TGI (HCC-2998 colon): > 100 µM | GI50 (A498 renal): 28.6 µM | TGI (A498 renal): 74.9 µM | GI50 (DMS 114 small cell lung): 21.6 µM | TGI (DMS 114 small cell lung): 67.5 µM | GI50 (SW-620 colon): 39.5 µM | TGI (SW-620 colon): > 100 µM | GI50 (SF-268 CNS): 36.2 µM | TGI (SF-268 CNS): > 100 µM | GI50 (TK-10 renal): 50.8 µM | TGI (TK-10 renal): > 100 µM | GI50 (SNB-19 CNS): 64.6 µM | TGI (SNB-19 CNS): > 100 µM | GI50 (HT29 colon): 31.5 µM | TGI (HT29 colon): > 100 µM | GI50 (ACHN renal): 33.2 µM | TGI (ACHN renal): > 100 µM | GI50 (OVCAR-8 ovarian): 39.7 µM | TGI (OVCAR-8 ovarian): > 100 µM | GI50 (K-562 leukemia): 29 µM | TGI (K-562 leukemia): > 100 µM | GI50 (OVCAR-4 ovarian): 38.8 µM | TGI (OVCAR-4 ovarian): > 100 µM | GI50 (SNB-75 CNS): 15.8 µM | TGI (SNB-75 CNS): 69.1 µM | GI50 (A549 NSCLC): 43.6 µM | TGI (A549 NSCLC): > 100 µM | GI50 (LOX IMVI melanoma): 30.1 µM | TGI (LOX IMVI melanoma): > 100 µM | GI50 (NCI-H522 lung): 13.6 µM | TGI (NCI-H522 lung): 28.3 µM | GI50 (MALME-3M melanoma): 38.3 µM | TGI (MALME-3M melanoma): > 100 µM | GI50 (UO-31 renal): 41.6 µM | TGI (UO-31 renal): > 100 µM | GI50 (CAKI-1 renal): 47.5 µM | TGI (CAKI-1 renal): > 100 µM | GI50 (SF-295 CNS): 69.9 µM | TGI (SF-295 CNS): > 100 µM | GI50 (SN12C renal): 67 µM | TGI (SN12C renal): > 100 µM | GI50 (HCT-116 colon): 30.2 µM | TGI (HCT-116 colon): > 100 µM | GI50 (M14 melanoma): 45.4 µM | TGI (M14 melanoma): > 100 µM | GI50 (SF-539 CNS): 34.5 µM | TGI (SF-539 CNS): > 100 µM | GI50 (NCI-H23 lung): 27.6 µM | TGI (NCI-H23 lung): 91.8 µM | GI50 (LXFL 529 NSCLC): 24.7 µM | TGI (LXFL 529 NSCLC): > 100 µM | GI50 (EKVX NSCLC): 34.6 µM | TGI (EKVX NSCLC): 87.9 µM | GI50 (CCRF-CEM leukemia): 27.7 µM | TGI (CCRF-CEM leukemia): > 100 µM | GI50 (KM12 colon): 47.5 µM | TGI (KM12 colon): > 100 µM | GI50 (RPMI-8226 leukemia): 31.3 µM | TGI (RPMI-8226 leukemia): > 100 µM | GI50 (IGROV1 ovarian): 93 µM | TGI (IGROV1 ovarian): > 100 µM | GI50 (COLO 205 colon): 21.5 µM | TGI (COLO 205 colon): 47.4 µM | GI50 (SK-MEL-5 melanoma): 23.4 µM | TGI (SK-MEL-5 melanoma): 72.3 µM | GI50 (OVCAR-3 ovarian): 55.8 µM | TGI (OVCAR-3 ovarian): > 100 µM | GI50 (DMS 273 small cell lung): 25.3 µM | TGI (DMS 273 small cell lung): 80.7 µM
